From the CheMixHub viscosity set
± gives the uncertainty stated by the source.

Assay: xn = mol fraction of the nth substance listed

CCCCN + c1ccccc1
viscosity [mPa·s], 101 kPa
Conditions	303.15 K	313.15 K
x1 = 0.009356	0.5633 ± 0.0043	0.4919 ± 0.0039
x1 = 0.01948	0.5628 ± 0.0043	0.4907 ± 0.0039
x1 = 0.02841	0.5622 ± 0.0043	0.4905 ± 0.0039
x1 = 0.03798	0.562 ± 0.0043	0.4893 ± 0.0039
x1 = 0.048	0.5618 ± 0.0043	0.4884 ± 0.0039
x1 = 0.0558	0.536 ± 0.005	–
x1 = 0.05882	0.5617 ± 0.0043	0.4876 ± 0.0039
x1 = 0.0669	0.5608 ± 0.0043	0.4869 ± 0.0039
x1 = 0.07642	0.5598 ± 0.0043	0.4861 ± 0.0039
x1 = 0.08586	0.5588 ± 0.0043	0.4852 ± 0.0039
x1 = 0.1165	0.516 ± 0.005	–
x1 = 0.2036	0.494 ± 0.005	–
x1 = 0.2875	0.479 ± 0.005	–
x1 = 0.382	0.465 ± 0.005	–
x1 = 0.5164	0.453 ± 0.005	–
x1 = 0.5676	0.451 ± 0.005	–
x1 = 0.6631	0.448 ± 0.005	–
x1 = 0.7656	0.447 ± 0.005	–
x1 = 0.8602	0.446 ± 0.005	–
x1 = 0.9278	0.444 ± 0.005	–
x2 = 0.0974	0.4454 ± 0.0051	–
x2 = 0.1974	0.4466 ± 0.0051	–
x2 = 0.5007	0.4542 ± 0.0052	–
x2 = 0.6051	0.4738 ± 0.0054	–
x2 = 0.7995	0.5056 ± 0.0057	–
x2 = 0.9004	0.5322 ± 0.006	–

CCCC(=O)OCC + c1ccccc1
Conditions	viscosity [mPa·s]
303.15 K, 101.33 kPa, x2 = 0.0662	0.591 ± 0.005
303.15 K, 101.33 kPa, x2 = 0.2048	0.581 ± 0.005
303.15 K, 101.33 kPa, x2 = 0.3293	0.571 ± 0.005
303.15 K, 101.33 kPa, x2 = 0.4394	0.563 ± 0.005
303.15 K, 101.33 kPa, x2 = 0.5452	0.559 ± 0.005
303.15 K, 101.33 kPa, x2 = 0.5996	0.555 ± 0.005
303.15 K, 101.33 kPa, x2 = 0.6452	0.554 ± 0.005
303.15 K, 101.33 kPa, x2 = 0.7372	0.551 ± 0.005
303.15 K, 101.33 kPa, x2 = 0.8161	0.551 ± 0.005
303.15 K, 101.33 kPa, x2 = 0.8938	0.554 ± 0.005
303.15 K, 101.33 kPa, x2 = 0.9658	0.555 ± 0.005
308.15 K, 101.3 kPa, x1 = 0.0473	0.534 ± 0.005
308.15 K, 101.3 kPa, x1 = 0.099	0.531 ± 0.005
308.15 K, 101.3 kPa, x1 = 0.1937	0.528 ± 0.005
308.15 K, 101.3 kPa, x1 = 0.2987	0.526 ± 0.005
308.15 K, 101.3 kPa, x1 = 0.4059	0.527 ± 0.005
308.15 K, 101.3 kPa, x1 = 0.4998	0.529 ± 0.005
308.15 K, 101.3 kPa, x1 = 0.5753	0.533 ± 0.005
308.15 K, 101.3 kPa, x1 = 0.7021	0.541 ± 0.005
308.15 K, 101.3 kPa, x1 = 0.7978	0.55 ± 0.005
308.15 K, 101.3 kPa, x1 = 0.903	0.562 ± 0.005
308.15 K, 101.3 kPa, x1 = 0.9514	0.569 ± 0.005
313.15 K, 101.33 kPa, x2 = 0.2126	0.539 ± 0.005
313.15 K, 101.33 kPa, x2 = 0.4055	0.521 ± 0.004
313.15 K, 101.33 kPa, x2 = 0.507	0.513 ± 0.004
313.15 K, 101.33 kPa, x2 = 0.6031	0.506 ± 0.004
313.15 K, 101.33 kPa, x2 = 0.8066	0.496 ± 0.004
318.15 K, 101.3 kPa, x1 = 0.0473	0.47 ± 0.004
318.15 K, 101.3 kPa, x1 = 0.099	0.471 ± 0.004
318.15 K, 101.3 kPa, x1 = 0.1937	0.472 ± 0.004
318.15 K, 101.3 kPa, x1 = 0.2987	0.476 ± 0.004
318.15 K, 101.3 kPa, x1 = 0.4059	0.481 ± 0.004
318.15 K, 101.3 kPa, x1 = 0.4998	0.486 ± 0.004
318.15 K, 101.3 kPa, x1 = 0.5753	0.491 ± 0.004
318.15 K, 101.3 kPa, x1 = 0.7021	0.502 ± 0.005
318.15 K, 101.3 kPa, x1 = 0.7978	0.512 ± 0.005
318.15 K, 101.3 kPa, x1 = 0.903	0.525 ± 0.005
318.15 K, 101.3 kPa, x1 = 0.9514	0.531 ± 0.005

CCCCN + CCCCCCC
303.15 K, 101.33 kPa
Conditions	viscosity [mPa·s]
x1 = 0.1262	0.355 ± 0.009
x1 = 0.243	0.345 ± 0.009
x1 = 0.3214	0.358 ± 0.009
x1 = 0.4018	0.358 ± 0.009
x1 = 0.4973	0.362 ± 0.01
x1 = 0.6195	0.381 ± 0.01
x1 = 0.7804	0.434 ± 0.011
x1 = 0.8723	0.462 ± 0.012

CCCCCCCCCC(=O)OCC + CCCCO
viscosity [mPa·s], 100 kPa
Conditions	x1 = 0.1006	x1 = 0.2001	x1 = 0.3011	x1 = 0.3996	x1 = 0.4999	x1 = 0.6021	x1 = 0.7009	x1 = 0.7986	x1 = 0.9001
293.15 K	2.504 ± 0.029	2.299 ± 0.027	2.212 ± 0.026	2.15 ± 0.025	2.125 ± 0.025	2.139 ± 0.026	2.168 ± 0.026	2.2 ± 0.027	2.258 ± 0.028
298.15 K	2.217 ± 0.026	2.037 ± 0.024	1.967 ± 0.023	1.916 ± 0.023	1.914 ± 0.023	1.921 ± 0.023	1.962 ± 0.024	1.984 ± 0.024	2.047 ± 0.025
303.15 K	1.977 ± 0.023	1.825 ± 0.021	1.769 ± 0.021	1.733 ± 0.021	1.727 ± 0.021	1.738 ± 0.021	1.777 ± 0.022	1.798 ± 0.022	1.854 ± 0.023
308.15 K	1.764 ± 0.021	1.643 ± 0.019	1.596 ± 0.019	1.568 ± 0.019	1.569 ± 0.019	1.581 ± 0.019	1.608 ± 0.019	1.639 ± 0.02	1.687 ± 0.021
313.15 K	1.581 ± 0.018	1.488 ± 0.017	1.455 ± 0.017	1.433 ± 0.017	1.431 ± 0.017	1.444 ± 0.017	1.469 ± 0.018	1.501 ± 0.018	1.543 ± 0.019
318.15 K	1.424 ± 0.017	1.344 ± 0.016	1.322 ± 0.016	1.305 ± 0.016	1.31 ± 0.016	1.324 ± 0.016	1.355 ± 0.016	1.379 ± 0.017	1.42 ± 0.018

CCCCN + CCCCOC(C)=O
303.15 K, 101 kPa
Conditions	viscosity [mPa·s]
x1 = 0.21	0.6407 ± 0.0078
x1 = 0.2909	0.637 ± 0.0078
x1 = 0.4108	0.6349 ± 0.0077
x1 = 0.5598	0.6248 ± 0.0076
x1 = 0.64	0.6218 ± 0.0076
x1 = 0.7026	0.6038 ± 0.0074
x1 = 0.8413	0.5869 ± 0.0072
x1 = 0.9148	0.5794 ± 0.0071

CC[N+](=O)[O-] + CO
viscosity [mPa·s], 101.33 kPa
Conditions	293.15 K	303.15 K	313.15 K
x2 = 0.0501	0.657 ± 0.006	0.586 ± 0.005	0.527 ± 0.005
x2 = 0.0999	0.634 ± 0.006	0.565 ± 0.005	0.508 ± 0.005
x2 = 0.1503	0.617 ± 0.006	0.549 ± 0.005	0.493 ± 0.005
x2 = 0.2	0.603 ± 0.005	0.536 ± 0.005	0.48 ± 0.005
x2 = 0.25	0.593 ± 0.005	0.526 ± 0.005	0.471 ± 0.004
x2 = 0.3	0.584 ± 0.005	0.517 ± 0.005	0.462 ± 0.004
x2 = 0.3501	0.576 ± 0.005	0.51 ± 0.005	0.455 ± 0.004
x2 = 0.4	0.57 ± 0.005	0.504 ± 0.005	0.448 ± 0.004
x2 = 0.45	0.564 ± 0.005	0.498 ± 0.005	0.442 ± 0.004
x2 = 0.5	0.559 ± 0.005	0.493 ± 0.005	0.438 ± 0.004
x2 = 0.55	0.556 ± 0.005	0.489 ± 0.005	0.433 ± 0.004
x2 = 0.6	0.553 ± 0.005	0.487 ± 0.005	0.43 ± 0.004
x2 = 0.65	0.552 ± 0.005	0.485 ± 0.005	0.428 ± 0.004
x2 = 0.6999	0.552 ± 0.005	0.486 ± 0.005	0.428 ± 0.004
x2 = 0.75	0.555 ± 0.005	0.486 ± 0.005	0.427 ± 0.004
x2 = 0.8	0.558 ± 0.005	0.487 ± 0.005	0.428 ± 0.004
x2 = 0.85	0.562 ± 0.005	0.49 ± 0.005	0.43 ± 0.004
x2 = 0.9	0.567 ± 0.005	0.495 ± 0.005	0.434 ± 0.004
x2 = 0.95	0.576 ± 0.005	0.501 ± 0.005	0.437 ± 0.004

CC(=O)[O-].[NH4+] + CC(=O)[O-].CC[n+]1ccn(C)c1
101 kPa
Conditions	viscosity [mPa·s]
298.15 K, x1 = 0.0503	152.5 ± 10
303.15 K, x1 = 0.1703	185.5 ± 12

O=C(O)C(Cl)(Cl)Cl + CCCCOC(C)=O
323.15 K, 101 kPa
Conditions	viscosity [mPa·s]
x2 = 0.104	4.361 ± 0.056
x2 = 0.187	3.749 ± 0.048
x2 = 0.3013	2.85 ± 0.04
x2 = 0.379	2.406 ± 0.031
x2 = 0.494	1.798 ± 0.023
x2 = 0.584	1.419 ± 0.019
x2 = 0.7106	0.996 ± 0.013
x2 = 0.7901	0.81 ± 0.011
x2 = 0.929	0.588 ± 0.008

O=C(O)C(Cl)(Cl)Cl + C[N+](C)(C)CCO.[Cl-]
101 kPa, x2 = 0.333
Conditions	viscosity [mPa·s]
293.15 K	645.9 ± 25
298.15 K	435 ± 15
303.15 K	302.5 ± 9.3
308.15 K	216.1 ± 6
313.15 K	158.7 ± 4.1
318.15 K	119.2 ± 2.8
323.15 K	91.41 ± 2.1

O=C(O)C(Cl)(Cl)Cl + CCOC(C)=O
298.15 K, 101 kPa
Conditions	viscosity [mPa·s]
x1 = 0.1118	0.5878 ± 0.016
x1 = 0.184	0.7309 ± 0.019
x1 = 0.2807	1.001 ± 0.026
x1 = 0.3846	1.449 ± 0.038
x1 = 0.4878	2.176 ± 0.058
x1 = 0.6142	3.467 ± 0.092
x1 = 0.7008	4.709 ± 0.13
